# Counter-ions that a name gives are not always drawn. Like-named read-outs stand apart in the source and are kept apart here.
# Tests used:
# [1] = test system: SARS-CoV-2 (hCoV-19/Taiwan/4/2020); assay: microbe, parasite or virus in culture; type: cell-based; settings: for block of viral infection in the cell-based assay (α-glucosidase inhibitors): tested conc. 100 μM (Fig. S4)
# in vitro = settings: African green monkey, CC50 (μM); for CC50: Vero E6 cells
# [2] = biological target: Papain-like protease (nsp3) of SARS-CoV-2 (Severe acute respiratory syndrome coronavirus 2, UniProt P0DTD1); assay: biochemical; type: biochemical; settings: 100 uM, FRET-based enzymatic assay, 3 independent experiments, N.I. = no inhibition; for inhibition at 100 µM: read-out: Inhibition % at 100 uM of compounds, Papain-like protease (nsp3)
# SARS-CoV-2 = assay: Quantification of SARS-CoV-2 via antibody staining (viral NP protein) in Vero E6 cells; type: cell-based; settings: for IC50: viral titer by antinucleocapsid antibody
# [3] = Vero E6, concentrations used in the screen (10, 3.3 and 1 μM)
# [4] = Severe acute respiratory syndrome coronavirus 2, Vero C1008, minimal dose that showed antiinfective effect after virus challenge, incubation 72 h (D3), Vero E6, read-out: CPE (μM) D3
# [5] = minimal dose that showed antiinfective effect after virus challenge, incubation 120 h (D5), Vero E6, N.I. = no inhibition, dash = cytotoxicity was observed
# [6] = 100 PFU of SARS-CoV-2 (multiplicity of infection 0.025) in Vero E6 cells
# [7] = Severe acute respiratory syndrome coronavirus 2, Vero C1008, 100 PFU of SARS-CoV-2 (multiplicity of infection 0.025) in Vero E6 cells
# [8] = Severe acute respiratory syndrome coronavirus 2, Vero C1008, 72 h, read-out: CPE (μM) D3
# [9] = Severe acute respiratory syndrome coronavirus 2, Vero C1008, 120 h, […], N.I. = no inhibition, dash = cytotoxicity was observed, read-out: CPE (μM) D5
smiles,measurement,setting,value
CC(C)(C)NC(=O)[C@@H]1C[C@@H]2CCCC[C@@H]2CN1C[C@@H](O)[C@H](Cc1ccccc1)NC(=O)[C@H](CC(N)=O)NC(=O)c1ccc2ccccc2n1 [saquinavir mesylate],inhibition against SARS-CoV-2 in the cell-based screen,[1]; [3],none of these showed inhibition
Cc1ccnc2c1NC(=O)c1cccnc1N2C1CC1 [nevirapine],inhibition against SARS-CoV-2 in the cell-based screen,[1]; [3],no active compound was identified
NC(=O)c1ncn([C@@H]2O[C@H](CO)[C@@H](O)[C@H]2O)n1 [ribavirin],inhibition against SARS-CoV-2 in the cell-based screen,[1]; [3],no active compound was identified
CCC[C@H](NC(=O)[C@@H]1[C@H]2CCC[C@H]2CN1C(=O)[C@@H](NC(=O)[C@@H](NC(=O)c1cnccn1)C1CCCCC1)C(C)(C)C)C(=O)C(=O)NC1CC1 [Telaprevir],inhibition against SARS-CoV-2 in the cell-based screen,[1]; [3],none of these showed inhibition
Nc1nc(NC2CC2)c2ncn([C@H]3C=C[C@@H](CO)C3)c2n1 [abacavir sulfate],inhibition against SARS-CoV-2 in the cell-based screen,[1]; [3],no active compound was identified
CN1C[C@H](O)[C@@H](O)[C@H](O)[C@H]1CO [N-methyl-1-deoxynojirimycin],block of viral infection in the cell-based assay (α-glucosidase inhibitors),[1]; Vero E6,none was able to efficiently block the viral infection
Cc1cccc(C)c1OCC(=O)N[C@@H](Cc1ccccc1)[C@@H](O)C[C@H](Cc1ccccc1)NC(=O)[C@H](C(C)C)N1CCCNC1=O [Lopinavir],inhibition against SARS-CoV-2 in the cell-based screen,[1]; [3],none of these showed inhibition
CC(C)(C)C(=O)OCOP(=O)(COCCn1cnc2c(N)ncnc21)OCOC(=O)C(C)(C)C [adefovir dipivoxyl],inhibition against SARS-CoV-2 in the cell-based screen,[1]; [3],no active compound was identified
CC(C)CN(C[C@@H](O)[C@H](Cc1ccccc1)NC(=O)O[C@H]1CO[C@H]2OCC[C@H]21)S(=O)(=O)c1ccc(N)cc1 [darunavir],inhibition against SARS-CoV-2 in the cell-based screen,[1]; [3],none of these showed inhibition
CC(=O)OCC(CCn1cnc2cnc(N)nc21)COC(C)=O [famciclovir],inhibition against SARS-CoV-2 in the cell-based screen,[1]; [3],no active compound was identified
COC(=O)N[C@H](C(=O)N[C@@H](Cc1ccccc1)[C@@H](O)CN(Cc1ccc(-c2ccccn2)cc1)NC(=O)[C@@H](NC(=O)OC)C(C)(C)C)C(C)(C)C [atazanavir],inhibition against SARS-CoV-2 in the cell-based screen,[1]; [3],none of these showed inhibition
"CCCCc1oc2ccc(NS(C)(=O)=O)cc2c1C(=O)c1ccc(OCCCN(CCCC)CCCC)cc1 [Dronedarone 12, Dronedarone]",CC50 at 24 h,in vitro,12.1 µM
same,"Inhibition % at 100 uM of compounds, Papain-like protease (nsp3)",[2],significant inhibition
same,inhibition at 100 µM,[2],78.6%
same,minimal effective concentration,[1]; [4],7.5 µM
same,CPE (μM) D5,[1]; [5],N.I.
same,IC50,SARS-CoV-2; [6],4.5 µM
same,IC50,SARS-CoV-2; [7],4.51 µM
Nc1nc2c(ncn2CCC(CO)CO)c(=O)[nH]1 [penciclovir],inhibition against SARS-CoV-2 in the cell-based screen,[1]; [3],no active compound was identified
"CO[C@@H]1[C@@H](OC)[C@H](C)[C@@](O)(CC(=O)O)O[C@H]1[C@H](C)[C@H]1O[C@@]2(CC[C@@](C)([C@H]3CC[C@@](C)([C@@H]4O[C@@H]([C@H]5O[C@](C)(O)[C@H](C)C[C@@H]5C)C[C@@H]4O[C@@H]4C[C@H](OC)[C@@H](OC)[C@H](C)O4)O3)O2)C[C@H](O)[C@H]1C [Maduramicin 15, Maduramicin]",CC50,in vitro,6.39 µM
same,"Inhibition % at 100 uM of compounds, Papain-like protease (nsp3)",[2],N.I.
same,minimal effective concentration,[1]; [8],0.039 µM
same,minimal effective concentration,[1]; [9],0.117 µM
same,IC50,SARS-CoV-2; [6],1.3 µM
same,IC50,SARS-CoV-2; [7],1.32 µM
same,selectivity index (antiviral effect vs cytotoxicity),"SARS-CoV-2; Vero E6, CC50 vs IC50",no selectivity
Nc1ccn([C@H]2CC[C@@H](CO)O2)c(=O)n1 [zalcitabine],inhibition against SARS-CoV-2 in the cell-based screen,[1]; [3],no active compound was identified
CC(C)Nc1cccnc1N1CCN(C(=O)c2cc3cc(NS(C)(=O)=O)ccc3[nH]2)CC1 [delavirdine],inhibition against SARS-CoV-2 in the cell-based screen,[1]; [3],no active compound was identified
Nc1nc2c(ncn2COCCO)c(=O)[nH]1 [acyclovir],inhibition against SARS-CoV-2 in the cell-based screen,[1]; [3],no active compound was identified
"CC(C)(C)NC(=O)N[C@H](C(=O)N1C[C@H]2[C@@H]([C@H]1C(=O)NC(CC1CCC1)C(=O)C(N)=O)C2(C)C)C(C)(C)C (some centres unmarked) [Boceprevir 2, Boceprevir]","Inhibition % at 100 uM of compounds, Papain-like protease (nsp3)",[2],N.I.
same,minimal effective concentration,[1]; [4],10 µM
same,minimal effective concentration,"[1]; Severe acute respiratory syndrome coronavirus 2, Vero C1008, minimal dose that showed antiinfective effect after virus challenge, incubation 120 h (D5), Vero E6, N.I. = no inhibition, dash = cytotoxicity was observed, read-out: CPE (μM) D5",10 µM
same,IC50,SARS-CoV-2; [6],50.1 µM
same,IC50,SARS-CoV-2; [7],> 50 µM
"COc1ccc2cc1Oc1ccc(cc1)C[C@H]1c3c(cc4c(c3Oc3cc5c(cc3OC)CCN(C)[C@@H]5C2)OCO4)CCN1C [Cepharanthine 4, Cepharanthine]",CC50 at 24 h,in vitro,12.9 µM
same,inhibition at 100 µM,[2],31.9%
same,minimal effective concentration,[1]; [8],3.75 µM
same,minimal effective concentration,[1]; [9],7.5 µM
same,IC50,SARS-CoV-2; [7],2.8 µM
"CC1=C(C(=O)OC(C)C)C(c2cccc([N+](=O)[O-])c2)C(C(=O)OC2CN(C(c3ccccc3)c3ccccc3)C2)=C(N)N1 (centres unmarked) [Azelnidipine 10, Azelnidipine]",CC50 at 24 h,in vitro,12.9 µM
same,"Inhibition % at 100 uM of compounds, Papain-like protease (nsp3)",[2],N.I.
same,minimal effective concentration,[1]; [4],5 µM
same,CPE (μM) D5,[1]; [5],N.I.
same,IC50,SARS-CoV-2; [6],5.3 µM
same,IC50,SARS-CoV-2; [7],5.29 µM
CC(=O)N[C@@H](C)C(=O)N[C@H](C(=O)N[C@@H](Cc1ccccc1)[C@@H](O)[C@H](O)[C@H](Cc1ccccc1)NC(=O)[C@@H](NC(=O)[C@H](C)NC(C)=O)C(C)C)C(C)C [JJS-0309],inhibition against SARS-CoV-2 in the cell-based screen,[1],did not show any inhibition
COC(=O)N[C@H](C(=O)N1CCC[C@H]1c1nc(-c2ccc(-c3ccc(-c4c[nH]c([C@@H]5CCCN5C(=O)[C@@H](NC(=O)OC)C(C)C)n4)cc3)cc2)c[nH]1)C(C)C [daclatasvir],inhibition against SARS-CoV-2 in the cell-based screen,[1]; [3],none of these showed inhibition
C=C1[C@H](CO)[C@@H](O)C[C@@H]1n1cnc2c(=O)[nH]c(N)nc21 [entecavir],inhibition against SARS-CoV-2 in the cell-based screen,[1]; [3],no active compound was identified
CC(C)(C)OC(=O)N[C@H]1CCCCC/C=C\[C@@H]2C[C@@]2(C(=O)NS(=O)(=O)C2CC2)NC(=O)[C@@H]2C[C@@H](OC(=O)N3Cc4cccc(F)c4C3)CN2C1=O [danoprevir],inhibition against SARS-CoV-2 in the cell-based screen,[1]; [3],none of these showed inhibition
Cc1cn([C@@H]2C[C@@H](O)[C@H](CO)O2)c(=O)[nH]c1=O [telbivudine],inhibition against SARS-CoV-2 in the cell-based screen,[1]; [3],no active compound was identified
CC(C)OC(=O)OCOP(=O)(CO[C@H](C)Cn1cnc2c(N)ncnc21)OCOC(=O)OC(C)C [tenofovir disoproxil fumarate],inhibition against SARS-CoV-2 in the cell-based screen,[1]; [3],no active compound was identified
OCCN1C[C@H](O)[C@@H](O)[C@H](O)[C@H]1CO [miglitol],block of viral infection in the cell-based assay (α-glucosidase inhibitors),[1]; Vero E6,none was able to efficiently block the viral infection
CC(C)c1nc(CN(C)C(=O)N[C@H](C(=O)N[C@@H](Cc2ccccc2)C[C@H](O)[C@H](Cc2ccccc2)NC(=O)OCc2cncs2)C(C)C)cs1 [Ritonavir],inhibition against SARS-CoV-2 in the cell-based screen,[1]; [3],none of these showed inhibition
CC[C@H](CC[C@@H](C)[C@H]1CC[C@H]2[C@@H]3CC=C4C[C@@H](O[C@@H]5O[C@H](CO)[C@@H](O)[C@H](O)[C@H]5O)CC[C@]4(C)[C@H]3CC[C@]12C)C(C)C [daucosterol],block of viral infection in the cell-based assay (α-glucosidase inhibitors),[1]; Vero E6,none was able to efficiently block the viral infection
O=C1Nc2ccc(Cl)cc2[C@@](C#CC2CC2)(C(F)(F)F)O1 [efavirenz],inhibition against SARS-CoV-2 in the cell-based screen,[1]; [3],no active compound was identified
C[C@H]1O[C@H](O[C@H]2[C@H](O)[C@@H](O)[C@@H](O[C@H]3[C@H](O)[C@@H](O)C(O)O[C@@H]3CO)O[C@@H]2CO)[C@H](O)[C@@H](O)[C@@H]1N[C@H]1C=C(CO)[C@@H](O)[C@H](O)[C@H]1O (some centres unmarked) [acarbose],block of viral infection in the cell-based assay (α-glucosidase inhibitors),[1]; Vero E6,none was able to efficiently block the viral infection
Nc1ccn(C[C@@H](CO)OCP(=O)(O)O)c(=O)n1 [cidofovir],inhibition against SARS-CoV-2 in the cell-based screen,[1]; [3],no active compound was identified
CC(C)CN(C[C@@H](O)[C@H](Cc1ccccc1)NC(=O)O[C@H]1CCOC1)S(=O)(=O)c1ccc(N)cc1 [amprenavir],inhibition against SARS-CoV-2 in the cell-based screen,[1]; [3],none of these showed inhibition
CC(C)(C)NC(=O)[C@@H]1CN(Cc2cccnc2)CCN1C[C@@H](O)C[C@@H](Cc1ccccc1)C(=O)N[C@H]1c2ccccc2C[C@H]1O [indinavir sulfate],inhibition against SARS-CoV-2 in the cell-based screen,[1]; [3],none of these showed inhibition
"CC[C@H]1CN2CCc3cc(OC)c(OC)cc3[C@@H]2C[C@@H]1C[C@H]1NCCc2cc(OC)c(OC)cc21 [Emetine 5, Emetine]",CC50,in vitro,> 10 µM
same,minimal effective concentration,[1]; [8],5 µM
same,minimal effective concentration,[1]; [9],10 µM
same,IC50,SARS-CoV-2; [6],0.0004 µM
same,IC50,SARS-CoV-2; [7],0.000397 µM
OCC(CO)N[C@H]1C[C@](O)(CO)[C@@H](O)[C@H](O)[C@H]1O [voglibose],block of viral infection in the cell-based assay (α-glucosidase inhibitors),[1]; Vero E6,none was able to efficiently block the viral infection
